Source: patent US20260297542A1, “HERBICIDE RESISTANT PLANTS” (SYNGENTA CROP PROTECTION AG, priority 2023, published 2026)

Molecular target: T1, His-TEV-AtPP01 ΔcTP L479M (SEQ ID NO: 371) (Arabidopsis thaliana, UniProt P55826, L479M)
T1 construct: with cTPs removed; made in house; host or cells: E. coli BL21 (DE3), His GraviTrap, partially purified
T1 sequence (P55826 with tags, fused parts or gaps L479M): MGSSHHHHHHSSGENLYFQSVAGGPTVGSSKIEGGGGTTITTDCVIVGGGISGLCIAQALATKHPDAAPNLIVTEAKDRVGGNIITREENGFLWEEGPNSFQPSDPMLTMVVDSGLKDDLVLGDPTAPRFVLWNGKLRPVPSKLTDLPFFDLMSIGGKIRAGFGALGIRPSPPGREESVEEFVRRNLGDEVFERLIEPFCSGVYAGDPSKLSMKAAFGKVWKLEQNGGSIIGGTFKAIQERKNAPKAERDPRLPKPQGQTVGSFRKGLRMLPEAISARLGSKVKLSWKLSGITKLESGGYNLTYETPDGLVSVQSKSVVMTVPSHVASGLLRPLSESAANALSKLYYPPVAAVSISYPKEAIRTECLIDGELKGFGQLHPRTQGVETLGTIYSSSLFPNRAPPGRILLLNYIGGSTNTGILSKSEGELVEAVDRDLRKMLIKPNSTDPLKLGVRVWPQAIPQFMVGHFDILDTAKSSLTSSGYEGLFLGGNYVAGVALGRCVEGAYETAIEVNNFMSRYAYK
Assay: PPO fluorescence IC50 assay, partially purified enzyme
Type: biochemical
Conditions: not given
Excerpt: A pET24 plasmid containing a DNA sequence encoding variants of AtPPO1 derived from Arabidopsis thaliana with cTPs removed and both a 6×His tag and TEV protease cleavage tag added at the N-terminus, codon-optimised for expression in E. coli, and under control of a T7 promoter, was synthesised by Twist Bioscience. The following variants were synthesised: WT AtPPO1 (SEQ ID NO: 370), AtPPO1 L479M (SEQ ID NO: 371), AtPPO1 L479N (SEQ ID NO: 372), AtPPO1 S305L Y426V (SEQ ID NO: 374) and AtPPO1 S305L Y426V L479M (SEQ ID NO: 373). This plasmid was expressed in E. coli BL21 (DE3) with 50 μg/mL kanamycin selection. 10 mL of overnight cultures grown at 37° C. were used to inoculate 1 L AIM (AIM-Terrific Broth Base including Trace elements, Formedium) in 2 L shake flasks. Cultures were grown at 37° C., 200 rpm for 3 hours and then overnight at 26° C. Cells were harvested centrifugation. 5-15 g of cell pellet was lysed in and resuspended in ratio of 1:1.5 in lysis buffer (20 mM Tris pH8, 500 mM sodium chloride, 10% glycerol, 1× complete Protease EDTA-free Inhibitor Tablet (Roche), 10 mM imidazole). The resuspension was sonicated at 75% using 10 cycles of 30 seconds, 40 seconds off. After sonication Triton X-100 was added to the lysates at a final concentration of 0.5%. The lysates were centrifuged at 20,000 rpm for 25 min at 4° C. Cleared lysates were loaded on His GraviTrap (Cytiva) columns, washed with 20 mL of lysis buffer and eluted in elution buffer (20 mM Tris pH8, 500 mM sodium chloride, 10% glycerol, 200 mM imidazole, 0.03% (v/v) Triton X-100). The eluate was desalted on a PD10 column and 2.5-3.2 mL was collected. Protein concentration was measured and calculated using the absorbance at 280 nm. Extracts were diluted 1 in 4 and 10 uL was analysed by SDS PAGE.
Partially purified Protoporphyrinogen Oxidase enzymes were assayed for activity using fluorescence adapted from the method of Shepherd & Dailey (Anal Biochem. 2005 344(1) 115-121). The assay was performed in black 384 well plates with a clear bottom and the total volume of the reaction mixture was 91 ul. The final assay mixture contained 100 mM K2HPO4 pH7.2, 1 mM Na2EDTA, 5 mM DTT, 20% glycerol (v/v), 0.05% Tween 20 (v/v), 1.1% DMSO (v/v), 1 uM protoporphyrinogen IX and 1.5 nM enzyme. Compounds were dissolved in DMSO at 1 mM and a 4-fold serial dilution carried out to give 8 rates. 1 ul was added to the assay mixture. This gave final compound concentrations of 11, 2.7, 0.69, 0.17, 0.04, 0.01, 0.002, 0.0007 uM. Enzyme and inhibitor were preincubated for 5 minutes prior to starting the reaction with the addition of the substrate. […] IC50s were calculated using GraphPad Prism 7.05 nonlinear regression (Table 6). Each compound was tested in duplicate.

Q: Which IC50 does the source give for `CC(C)Oc1cc(-n2nc(C(C)(C)C)oc2=O)c(Cl)cc1Cl` [Oxadiazaon] here?
A: 11200 pM

Q: Which IC50 does the source give for `C=CCOC(=O)C(C)(C)OC(=O)c1cc(-n2c(=O)cc(C(F)(F)F)n(C)c2=O)ccc1Cl` [Butafenacil, butafenacil] here?
A: 700 pM

Q: With `CCOC(=O)[C@]1(C)CC(c2cc(-n3c(=O)n(C)c(=S)n(C)c3=O)c(F)cc2Cl)=NO1` [Herbicide D, ethyl (5S)-3-[2-chloro-5-(3,5-dimethyl-2,6-dioxo-4-thioxo-1,3,5-triazinan-1-yl)-4-fluoro-phenyl]-5-methyl-4H-isoxazole-5-carboxylate] as the compound, how does the IC50 read?
A: 600 pM

Q: With `C#CCOc1cc(-n2nc3n(c2=O)CCCC3)c(Cl)cc1Cl` [Azafenadin] as the compound, how does the IC50 read?
A: 700 pM

Q: How did the IC50 turn out when `CCOC(=O)C1(C)CC(c2cc(-n3c(=O)cc(C(F)(F)F)n(C)c3=O)c(F)cc2Cl)=NO1` (stereo not shown) [Herbicide C, 3-(2-chloro-4-fluoro-5-(3-methyl-2,6-dioxo-4-trifluoromethyl-3,6-dihydropyrimidin-1(2H)-yl)phenyl)-5-methyl-4,5-dihydroisoxazole-5-carboxylic acid ethyl ester] was run?
A: 800 pM

Q: How did the IC50 turn out when `CCOC(=O)COc1ncccc1Oc1cc(-n2c(=O)cc(C(F)(F)F)n(C)c2=O)c(F)cc1Cl` [Herbicide A, epyrifenacil] was run?
A: 800 pM

Q: How did the IC50 turn out when `C#CCN1C(=O)C(F)(F)Oc2cc(F)c(-n3c(=O)n(C)c(=S)n(C)c3=O)cc21` [Herbicide B, trifludimoxazin] was run?
A: 800 pM

Q: With `CCOC(=O)COc1cc(-c2nn(C)c(OC(F)F)c2Cl)c(F)cc1Cl` [Pyraflufen-ethyl, pyraflufen-ethyl] as the compound, how does the IC50 read?
A: 700 pM

Q: For `CS(=O)(=O)NC(=O)c1cc(Oc2ccc(C(F)(F)F)cc2Cl)ccc1[N+](=O)[O-]` [Fomesafen, fomesafen], which IC50 is on record?
A: 1200 pM

Q: `CC(C)N(C)S(=O)(=O)NC(=O)c1cc(-n2c(=O)cc(C(F)(F)F)n(C)c2=O)c(F)cc1Cl` [Herbicide E, saflufenacil] was tested. Which IC50 did it give?
A: 2400 pM

Q: Which IC50 does the source give for `C#CCN(C)c1c(C#N)cnn1-c1nn2c(c1Cl)CCCC2` [Pyraclonil] here?
A: 2300 pM

Q: Which IC50 does the source give for `C#CCN1C(=O)COc2cc(F)c(N3C(=O)C4=C(CCCC4)C3=O)cc21` [Flumioxazin, flumioxazin] here?
A: 1000 pM

Same assay, conditions: role: inhibitor; 1 uM protoporphyrinogen IX; <1.0 is below detection limit of assay

Q: How did the IC50 turn out when `COC(=O)C(C)ON=Cc1cc(-n2c(=O)cc(C(F)(F)F)n(C)c2=O)c(F)cc1Cl` (stereo not shown) [Flufenoximacil, flufenoximacil] was run?
A: 700 pM
